{"source": "paper PMC12688703", "about": "“NirA is a Cyanide‐Tolerant Nitrite Reductase Which Protects Pseudomonas aeruginosa From Self‐Poisoning” (Environmental Microbiology Reports, 2025)", "target": "T1, CysI (Pseudomonas aeruginosa, UniProt Q9I2Q7)", "T1 construct": "full orf with N-terminal hexahistidine tag (pSKcysI-N), E. coli BL21 (DE3) suf++ with pCDF-cysG; IMAC and SEC", "T1 sequence (Q9I2Q7 1-552)": "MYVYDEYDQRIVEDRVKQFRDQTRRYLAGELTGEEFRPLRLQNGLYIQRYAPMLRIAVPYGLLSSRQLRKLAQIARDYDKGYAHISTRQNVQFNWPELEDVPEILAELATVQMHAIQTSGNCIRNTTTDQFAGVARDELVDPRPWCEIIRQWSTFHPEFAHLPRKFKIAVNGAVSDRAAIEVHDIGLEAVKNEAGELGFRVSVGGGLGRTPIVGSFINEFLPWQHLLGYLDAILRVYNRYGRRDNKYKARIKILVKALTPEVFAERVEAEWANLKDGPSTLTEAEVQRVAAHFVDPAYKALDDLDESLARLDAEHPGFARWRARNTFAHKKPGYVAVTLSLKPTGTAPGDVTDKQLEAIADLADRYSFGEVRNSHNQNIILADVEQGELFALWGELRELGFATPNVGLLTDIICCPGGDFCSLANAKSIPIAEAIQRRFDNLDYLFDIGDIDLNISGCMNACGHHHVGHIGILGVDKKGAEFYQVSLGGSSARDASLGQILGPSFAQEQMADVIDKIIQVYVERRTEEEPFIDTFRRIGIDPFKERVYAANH", "test": "methyl viologen oxidation at […] nm", "type": "biochemical", "conditions": "anaerobic; methyl viologen as electron donor", "data": [{"compound": "O=S(O)O", "note": "[hydrogen sulphite]", "values": [{"measurement": "methyl viologen oxidation at 605 nm", "value": "Potassium nitrite and hydrogen sulphite were used as electron acceptors for NirA and CysI"}]}]}
